Where two headings read alike, the source gives them in different places. Marks after values point to notes of the source that are not given here.
Legend:
Alternaria solani = test: Alternaria test (tomato) / protective; type: in vivo; conditions: 500 ppm active compound, protective spray, evaluated 7 days after inoculation
Method: Alternaria Test (Tomato)/Protective
Solvent: 49 parts by weight of N,N-dimethylformamide
Emulsifier: 1 part by weight of alkylaryl polyglycol ether
To produce a suitable preparation of active compound, 1 part by weight of active compound is mixed with the stated amounts of solvent and emulsifier, and the concentrate is diluted with water to the desired concentration.
To test for protective activity, young tomato plants are sprayed with the preparation of active compound at the stated application rate. […] The plants then remain at 96% rel. atmospheric humidity and a temperature of 20° C.
Evaluation is carried out 7 days after the inoculation. 0% means an efficacy which corresponds to that of the control, whereas an efficacy of 100% means that no infection is observed.

Fusarium graminearum = type: cell-based; conditions: 50 μM; for % Inhibition of DON/AcDON at 50 μM: 7 days at 28° C.

Structure (SMILES) | efficacy (Alternaria solani) [%] | log p (pH 2.7) | logP value of the minor isomer (pH 2.7) | % Inhibition of fungal growth at 50 μM (Fusarium graminearum) [%] | % Inhibition of DON/AcDON at 50 μM (Fusarium graminearum) [%] | log p (pH 2.3) | logP value of the minor isomer (in parenthesis in column Isomer ratio [d]) (minor isomer, main value of the example measured by method [a], pH 2.3) | log p (pH 7.8) | logP value of the minor isomer (pH 7.8)
Fc1ccc(-c2nn(CCCl)cc2-c2ccncc2)s1 [Example 381] | 94 | 1.45^[b] | (1.34) | 91 | 99 |  |  |  | 
FC(F)(F)Cn1cc(-c2ccncc2)c(-c2ccc(Br)s2)n1 [Example 391] | 100 | 1.98^[b] |  | 97 | 99 |  |  |  | 
CC(C)n1cc(-c2ccncc2)c(-c2cccs2)n1 [Example 300] | 95 | 1.27^[b] |  | 100 | 99 |  |  |  | 
FCCn1cc(-c2ccncc2)c(-c2ccc(F)s2)n1 [Example 375] | 100 | 1.16^[b] |  | 78 | 99 |  |  |  | 
CCC(C)n1nc(-c2ccc(Cl)s2)c(-c2ccncc2)c1Br (stereo not drawn) [Example 394] | 94 | 3.69^[b] |  | 92 | 100 |  |  |  | 
CC(C)(C)Cn1cc(-c2ccncc2)c(-c2ccc(Br)s2)n1 [Example 347] | 70 | 2.46^[b] |  | 79 | 99 |  |  |  | 
CC(C)Cn1cc(-c2ccncc2)c(-c2cc3ccsc3s2)n1 [Example 369] | 94 | 2.04^[b] |  | 100 | 99 |  |  |  | 
CC(C)Cn1cc(-c2ccnc(N(C(=O)C3CC3)C(=O)C3CC3)c2)c(-c2ccc(Cl)s2)n1 [Example 82] | 78 |  |  |  |  | 4.75^[a] |  |  | 
FC(F)(F)Cn1cc(-c2ccncc2)c(-c2cc3ccsc3s2)n1 [Example 330] | 94 | 1.91^[b] |  | 31 | 94 |  |  |  | 
CC(C)Cn1cc(-c2ccnc(N)c2)c(-c2ccc(Cl)s2)n1 [Example 76] | 89 |  |  |  |  | 2.04^[a] | (1.93) |  | 
CC1(Cn2cc(-c3ccncc3)c(-c3ccc(F)s3)n2)CC1(Cl)Cl (stereo not drawn) [Example 342] | 89 | 2.39^[b] |  | 23 | 97 |  |  |  | 
c1cc(-c2cn(C3CCCC3)nc2-c2cc3ccsc3s2)ccn1 [Example 332] | 94 | 2.25^[b] |  |  |  |  |  |  | 
Fc1ccc(-c2nn(CC(F)F)cc2-c2ccncc2)s1 [Example 373] | 100 | 1.34^[b] |  | 97 | 99 |  |  |  | 
O=C1OCCC1n1cc(-c2ccncc2)c(-c2ccc(Br)s2)n1 (stereo not drawn) [Example 385] | 94 | 1.52^[b] |  | 17 | 82 |  |  |  | 
CCC(CC)n1cc(-c2ccncc2)c(-c2ccc(F)s2)n1 [Example 380] | 89 | 2.04^[b] | (1.95) | 82 | 99 |  |  |  | 
N#CCn1cc(-c2ccncc2)c(-c2ccc(Br)s2)n1 [Example 348] |  | 1.51^[b] |  | 45 | 99 |  |  |  | 
O=C1OCCC1n1cc(-c2ccncc2)c(-c2cc3ccsc3s2)n1 (stereo not drawn) [Example 372] |  | 1.49^[b] |  | 1 | 98 |  |  |  | 
CCOCCn1cc(-c2ccncc2)c(-c2ccc(F)s2)n1 [Example 374] | 94 | 1.43^[b] |  | 58 | 99 |  |  |  | 
Fc1ccc(-c2nn(C3CCCC3)cc2-c2ccncc2)s1 [Example 344] | 94 | 2.02^[b] |  | 91 | 98 |  |  |  | 
O=C1OCCC1n1cc(-c2ccncc2)c(-c2ccc(Cl)s2)n1 (stereo not drawn) [Example 365] | 78 | 1.48^[b] |  | 100 | 90 |  |  |  | 
CCn1cc(-c2ccncc2)c(-c2ccc(Br)s2)n1 [Example 390] | 100 | 1.6^[b] | (1.49) | 100 | 99 |  |  |  | 
CC(C)Cn1nc(-c2ccc(Cl)s2)c(-c2ccncc2)c1Br [Example 395] | 78 | 3.58^[b] |  | 0 | 99 |  |  |  | 
CCn1cc(-c2ccncc2)c(-c2ccc(F)s2)n1 [Example 377] | 100 | 1.28^[b] | (1.22) | 89 | 99 |  |  |  | 

Structure (SMILES) | efficacy (Alternaria solani) [%] | log p (pH 2.7) | logP value of the minor isomer (pH 2.7) | % Inhibition of fungal growth at 50 μM (Fusarium graminearum) [%] | % Inhibition of DON/AcDON at 50 μM (Fusarium graminearum) [%] | log p (pH 2.3) | logP value of the minor isomer (in parenthesis in column Isomer ratio [d]) (minor isomer, main value of the example measured by method [a], pH 2.3) | log p (pH 7.8) | logP value of the minor isomer (pH 7.8)
CCn1cc(-c2ccnc(Cl)c2)c(-c2ccc(Cl)s2)n1 [Example 316] |  | 3.89^[b] |  | 37 | 87 |  |  |  | 
CCC(C)n1cc(-c2ccncc2)c(-c2cc3ccsc3s2)n1 (stereo not drawn) [Example 328] | 94 | 2.07^[b] |  | 100 | 98 |  |  |  | 
Cn1cc(-c2ccnc(N)c2)c(-c2ccc(Cl)s2)n1 [Example 305] | 70 | 1.34^[b] |  |  |  |  |  |  | 
CCOCCn1cc(-c2ccncc2)c(-c2ccc(Br)s2)n1 [Example 349] |  | 1.75^[b] |  | 95 | 99 |  |  |  | 
CCOCCn1cc(-c2ccncc2)c(-c2cc3ccsc3s2)n1 [Example 337] | 94 | 1.7^[b] |  | 100 | 99 |  |  |  | 
Fc1ccc(-c2nn(Cc3ccc(Cl)s3)cc2-c2ccncc2)s1 [Example 341] |  | 2.34^[b] |  | 55 | 96 |  |  |  | 
Fc1cccc(Cn2cc(-c3ccncc3)c(-c3ccc(Br)s3)n2)c1F [Example 353] | 78 | 2.44^[b] |  |  |  |  |  |  | 
CC(C)n1cc(-c2ccncc2)c(-c2cc3ccsc3s2)n1 [Example 366] | 78 | 1.79^[b] |  | 93 | 98 |  |  |  | 
CCC(C)n1cc(-c2ccnc(NC(=O)OC(C)C)c2)c(-c2ccc(Cl)s2)n1 (stereo not drawn) [Example 239] | 80 | 4.33^[b] |  |  |  |  |  |  | 
ClCCn1cc(-c2ccncc2)c(-c2cc3ccsc3s2)n1 [Example 370] |  | 1.7^[b] |  | 70 | 99 |  |  |  | 
N#CCCn1cc(-c2ccncc2)c(-c2ccc(Cl)s2)n1 [Example 322] |  | 0.98^[b] |  | 0 | 99 |  |  |  | 
CC(C)Cn1cc(-c2ccncc2)c(-c2ccc(F)s2)n1 [Example 379] | 94 | 1.82^[b] | (1.72) | 90 | 99 |  |  |  | 
CCCc1c(-c2ccncc2)c(-c2sccc2C)nn1C [Example 165] | 70 | 1.31^[b] | 1.46^[b]) |  |  |  |  | 2.59^[c]; | (2.79^[c];
Clc1ccc(Cn2cc(-c3ccncc3)c(-c3ccc(Cl)s3)n2)s1 [Example 323] | 78 | 2.64^[b] |  | 6 | 94 |  |  |  | 
CC(C)(C)Cn1cc(-c2ccncc2)c(-c2ccc(F)s2)n1 [Example 345] | 94 | 2.11^[b] |  | 63 | 97 |  |  |  | 
CC(C)Cn1ncc(-c2ccncc2)c1-c1ccc(Br)s1 [Example 406] |  | 1.91^[b] |  | 0 | 95 |  |  |  | 
CCC(C)Nc1nccc(-c2cn(C(C)CC)nc2-c2ccc(Cl)s2)n1 (stereo not drawn) [Example 197] |  |  |  | 73 | 90 | 3.48^[a] |  |  | 
COCC(=O)Nc1cc(-c2cn(C(C)C)nc2-c2ccc(Cl)s2)ccn1 [Example 244] |  | 3.25^[b] |  | 100 | 99 |  |  |  | 
CC(C)n1cc(-c2ccnc(N)c2)c(-c2ccc(Cl)s2)n1 [Example 306] |  | 1.78^[b] |  | 87 | 100 |  |  |  | 
Nc1cc(-c2cn(/C=C/F)nc2-c2ccc(Cl)s2)ccn1 [Example 301] |  | 1.59^[b] |  | 60 | 99 |  |  |  | 
CC(C)(C)Cn1cc(-c2ccncc2)c(-c2cc3ccsc3s2)n1 [Example 334] | 78 | 2.35^[b] |  |  |  |  |  |  | 
CC(C)n1cc(-c2ccnc(NC(=O)c3ccccc3)c2)c(-c2ccc(Cl)s2)n1 [Example 260] | 80 | 4.03^[b] |  |  |  |  |  |  | 
CC(C)n1ncc(-c2ccncc2)c1-c1ccc(F)s1 [Example 109] |  | 1.51^[b] |  | 49 | 100 |  |  |  | 

— US8685974B2 (Bayer CropScience AG, priority 2009, dated 2014)
